Source: PubChem BioAssay AID1963427 (Molecular Pharmacology Branch, DTP, NCI, 2024)

Tested on: 317291-083-R-J1-PDC complex spheroid growth
Assay: Anticancer human tumor 317291-083-R-J1-PDC patient-derived soft tissue sarcoma cell line growth inhibition [Asc]
Details: for IC50: curve of first compound; for viability, T/C: stronger effect = lower value
Experimental: Multicellular complex tumor spheroid response to apoptosis pathway targeting inhibitors Alrizomadlin, Pelcitoclax, and Dasminapant in combination with a variety of drugs and investigational agents in selected tumor cell lines
The MDM2 inhibitor alrizomadlin, the Bcl-2/Bcl-xL inhibitor pelcitoclax, and the IAPs inhibitor dasminapant were evaluated both individually and in combination with standard of care and investigational anticancer small molecules within a complex spheroid model of solid tumors. . Complex spheroids include a stromal component modeled by human endothelial cells (HUVEC) and fibroblasts modeled by human mesenchymal stem cells (MSCs). The concentration ranges selected for each drug and investigational agent were based upon clinically achievable concentrations if the clinical Cmax of the agent was known.
Compounds. The drugs and investigational agents: alrizomadlin (APG-115; NSC831270), pelcitoclax (APG-1252; NSC835773), dasminapant (APG-1387;NSC834197), TAK-243 (NSC785004), copanlisib (NSC809693), olaparib (NSC753686), talazoparib (NSC767125), cobimetinib (NSC 768068), eltanexor (KPT-8602, NSC 794443), abemaciclib (NSC 768073), sotorasib (NSC818433), adagrasib (NSC 831453), MRTX-1133 (NSC 836407), Iadademestat (ORY1001, NSC 806812), and RMC-4630 (NSC839698), were obtained from the NCI Developmental Therapeutics Program Chemical Repository. The FDA-approved anticancer drug set is available from the Developmental Therapeutics Program at https://dtp.cancer.gov/organization/dscb/obtaining/available plates.htm. […] The stock solutions were prepared in dimethyl sulfoxide (DMSO, Sigma-Aldrich, St. Louis, MO, cat. D2650) at 800-fold the tested concentration and stored at -70 degrees C prior to their use. All drugs and investigational agents were tested over a range starting from a high concentration at or near the clinical Cmax and decreasing in half-log increments. If the clinical Cmax for an agent had not been determined, the highest concentration tested was 10 microM.
The patient-derived cancer (PDC) cell lines include five colon adenocarcinomas: 186277-243-T-J2-PDC, 616215-338-R-J1-PDC, 439559-082-T-J2-PDC, 463943-066-T-J2-PDC, and 519858-162-T-J1-PDC; three pancreatic carcinomas: 323965-272-R-J2-PDC, 521955-158-R6-J3-PDC, and 521955-158-R2-J5-PDC; two uterine sarcomas: 327498-152-R-J2-PDC and 993429-296-R-J1-PDC; two rhabdomyosarcomas: 755483-174-R-J1-PDC and 772245-204-R-J1-PDC; two soft tissue sarcomas: 126254-015-R-J1-PDC and 494315-158-R-J1-PDC; two malignant fibrous histiocytomas: 317291-083-R-J1-PDC and 596521-263-R-J1-PDC; two breast carcinomas: 171881-019-R-J1-PDC and 885512-296-R-J2-PDC; and one ovarian carcinoma: 6556581-035-R-J-PDC were obtained from the NCI PDMR, (https://pdmr.cancer.gov). The established cell lines HSSY-2 synovial sarcoma (RRID:CVCL 8719), SYO-1 synovial sarcoma (RRID:CVCL_7146), MPNST malignant peripheral neural sheath tumor were obtained from the Sloan Kettering Institute. The following established cell lines were purchased from the American Type Culture Collection (ATCC, Manassas, VA), Sor the received from the NCI repository:, PANC-1 pancreatic carcinoma (CRL-1469, RRID:CVCL_0480), OVCAR-5 ovarian carcinoma (RRID:CVCL_1628), OVCAR-8 ovarian carcinoma (RRID:CVCL_1629), , MCF-7 breast carcinoma (CRL-12584, RRID:CVCL_0031), MDA-MB-231 breast carcinoma (CRL-12532, RRID:CVCL_0062), NCI-H1876 small cell lung carcinoma (CRL-5902, RRID:CVCL_1503), NCI-H510A small cell lung carcinoma (HTB-184, RRID:CVCL_1565), NCI-H1417 (CRL-5869, RRID:CVCL_1469), and NCI-H196 small cell lung carcinoma (CRL-5823, RRID:CVCL_1509). Dr. Peter Houghton (Greehey Children's Cancer Research Institute, University of Texas Health Science Center, San Antonio, TX) provided Rh-18 rhabdomyosarcoma (RRID:CVCL_1659). Pooled donor human umbilical vein endothelial cells (HUVEC, Lonza, cat. CC-2519) and human mesenchymal stem cells (hMSC, Lonza, cat. PT-2501) were purchased from Lonza (Walkersville, MD).
Cell Culture. […]
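Note: compound exposure lasted seven days after spheroids formed for three days.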
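Throughout, for viability, T/C: 100% = DMSO vehicle control wells.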

For O=C(c1cc(Cc2n[nH]c(=O)c3ccccc23)ccc1F)N1CCN(C(=O)C2CC2)CC1 + CCN1C(C(=O)NC23CCC(C(=O)O)(CC2)CC3)C(c2cccc(Cl)c2F)C2(C(=O)Nc3cc(Cl)ccc32)C12CCCCC2, the IC50 (second compound 0.00949 µM) was 9.4 µM, the IC50 (second compound 0.03 µM) was > 10 µM and the IC50 (second compound 0.0949 µM) was > 10 µM. The IC50 (second compound 0.3 µM) was 9.47 µM, the IC50 (second compound 0.949 µM) was > 10 µM and the IC50 (second compound 3 µM) was 7.68 µM. The viability, T/C (second compound 0.00949 µM, first compound 0.0316 µM) was 111%, the viability, T/C (second compound 0.00949 µM, first compound 0.1 µM) was 108% and the viability, T/C (second compound 0.00949 µM, first compound 0.316 µM) was 108%. It also gave a viability, T/C (second compound 0.00949 µM, first compound 1 µM) of 86.9%, a viability, T/C (second compound 0.00949 µM, first compound 3.16 µM) of 92.7% and a viability, T/C (second compound 0.00949 µM, first compound 10 µM) of 46.2%. The viability, T/C (second compound 0.03 µM, first compound 0.0316 µM) was 110%, the viability, T/C (second compound 0.03 µM, first compound 0.1 µM) was 101% and the viability, T/C (second compound 0.03 µM, first compound 0.316 µM) was 102%. The viability, T/C (second compound 0.03 µM, first compound 1 µM) was 104%, the viability, T/C (second compound 0.03 µM, first compound 3.16 µM) was 81.7% and the viability, T/C (second compound 0.03 µM, first compound 10 µM) was 54.6%. For the same molecule, the viability, T/C (second compound 0.0949 µM, first compound 0.0316 µM) was 101%, the viability, T/C (second compound 0.0949 µM, first compound 0.1 µM) was 105% and the viability, T/C (second compound 0.0949 µM, first compound 0.316 µM) was 92.1%. The viability, T/C (second compound 0.0949 µM, first compound 1 µM) was 104%, the viability, T/C (second compound 0.0949 µM, first compound 3.16 µM) was 77.2% and the viability, T/C (second compound 0.0949 µM, first compound 10 µM) was 53%. It also gave a viability, T/C (second compound 0.3 µM, first compound 0.0316 µM) of 116%, a viability, T/C (second compound 0.3 µM, first compound 0.1 µM) of 114% and a viability, T/C (second compound 0.3 µM, first compound 0.316 µM) of 102%. It also gave a viability, T/C (second compound 0.3 µM, first compound 1 µM) of 91.2%, a viability, T/C (second compound 0.3 µM, first compound 3.16 µM) of 93.2% and a viability, T/C (second compound 0.3 µM, first compound 10 µM) of 46.2%. For the same molecule, the viability, T/C (second compound 0.949 µM, first compound 0.0316 µM) was 107%, the viability, T/C (second compound 0.949 µM, first compound 0.1 µM) was 109% and the viability, T/C (second compound 0.949 µM, first compound 0.316 µM) was 107%. The viability, T/C (second compound 0.949 µM, first compound 1 µM) was 92.4%, the viability, T/C (second compound 0.949 µM, first compound 3.16 µM) was 88.9% and the viability, T/C (second compound 0.949 µM, first compound 10 µM) was 51.9%. The viability, T/C (second compound 3 µM, first compound 0.0316 µM) was 88.2%, the viability, T/C (second compound 3 µM, first compound 0.1 µM) was 85.3% and the viability, T/C (second compound 3 µM, first compound 0.316 µM) was 81.1%. The viability, T/C (second compound 3 µM, first compound 1 µM) was 83.3%, the viability, T/C (second compound 3 µM, first compound 3.16 µM) was 77.1% and the viability, T/C (second compound 3 µM, first compound 10 µM) was 41.8%.
